Laboratory results from US10570426B2, “Method for producing methacrylic acid ester and novel methacrylic acid ester synthetase” (Mitsubishi Chemical Corporation, priority 2014, dated 2020).

Key:
[1] = system: AAT derived from Chamaemelum nobile; assay: Substrate specificity of AAT derived from Chamaemelum nobile; type: biochemical; settings: 0.12 mM acyl-CoA, pH 8.5, butyl methacrylate = 100%; for Relative activity with n-butanol: 40 mM n-butanol; for Relative activity with n-hexanol: 40 mM n-hexanol; for Relative activity with ethanol: 40 mM ethanol; for Relative activity with methanol: 40 mM methanol
Experimental: The substrate specificity of AAT was evaluated by the purified fraction obtained by MonoQ 5/50 GL column chromatography in Example 9.
In a 2-mL capacity screw vial, a reaction solution (50 mM Tris-HCl (pH 8.5), 40 mM alcohol, 0.12 mM acyl-CoA) was prepared, into which the purified fraction was added to be 500 μL. The vial was sealed and the mixture was reacted at 30° C. for one hour.
After the reaction was completed, 50 μL of 10 mM 2-hexanon was added as the internal sstandard, and solvent extraction was conducted using 200 μL octane or hexane. Centrifugation was conducted and 8 μL of the separated liquid was injected into GC to measure the ester produced through the enzymatic reaction. The amount of ester was calculated by the calibration curve using an internal standard method. The GC measuring conditions were set the same as in Example 9 except that the column temperature was adjusted appropriately for each of the target esters (see Table 4). To determine the quantity of n-butyl propionate, since the present column is unable to separate its peak from the peak of n-butanol, the absolute calibration curve method was employed under the GC-MS analysis conditions the same as in Example 1 (however, temperature conditions were changed to 80° C.→1 min→10° C./min→200° C.·5 min).
Relative activity values are shown based on the specific activity of butyl methacrylate set as 100%.

[2] = system: AAT derived from Chamaemelum nobile; assay: Km of AAT derived from Chamaemelum nobile; type: biochemical; settings: 40 mM n-hexanol, Tris-HCl pH 8.5, 30° C., 2 hours
Experimental: The Km values for methacrylyl-CoA and acetyl-CoA were measured using the purified fraction obtained by MonoQ 5/50 GL column chromatography in Example 9. A 500 μL reaction solution was prepared by adding the purified fraction, 40 mM n-hexanol and methacrylyl-CoA or acetyl-CoA at each concentration to a 50 mM Tris-HCl buffer (pH 8.5). The vial was sealed, and reaction was carried out at 30° C. for 2 hours.
After the reaction was completed, the same GC analysis as in Example 10 was conducted to measure the ester produced in the enzymatic reaction. The […] (Km) was applied to a Michaelis-Menten expression to calculate the values using a Kaleidagraph software made by HULINKS.

Km [2] [µM] | SMILES | Relative activity with n-butanol [1] [%] | Relative activity with n-hexanol [1] [%] | Relative activity with ethanol [1] [%] | Relative activity with methanol [1] [%]
711 | CC(=O)SCCNC(=O)CCNC(=O)[C@H](O)C(C)(C)COP(=O)(O)OP(=O)(O)OC[C@H]1O[C@@H](n2cnc3c(N)ncnc32)[C@H](O)[C@@H]1OP(=O)(O)O [acetyl-CoA] | 37 | 84 | – | –
– | CCCC(=O)SCCNC(=O)CCNC(=O)[C@H](O)C(C)(C)COP(=O)(O)OP(=O)(O)OC[C@H]1O[C@@H](n2cnc3c(N)ncnc32)[C@H](O)[C@@H]1OP(=O)(O)O [butyryl-CoA] | 40 | – | – | –
– | CCCCCC(=O)SCCNC(=O)CCNC(=O)[C@H](O)C(C)(C)COP(=O)(O)OP(=O)(O)OC[C@H]1O[C@@H](n2cnc3c(N)ncnc32)[C@H](O)[C@@H]1OP(=O)(O)O [hexanoyl-CoA] | 21 | – | 11 | –
– | CC(C)C(=O)SCCNC(=O)CCNC(=O)[C@H](O)C(C)(C)COP(=O)(O)OP(=O)(O)OC[C@H]1O[C@@H](n2cnc3c(N)ncnc32)[C@H](O)[C@@H]1OP(=O)(O)O [isobutyryl-CoA] | 114 | – | 5 | –
41 | C=C(C)C(=O)SCCNC(=O)CCNC(=O)[C@H](O)C(C)(C)COP(=O)(O)OP(=O)(O)OC[C@H]1O[C@@H](n2cnc3c(N)ncnc32)[C@H](O)[C@@H]1OP(=O)(O)O [methacrylyl-CoA] | 100 | 182 | 4 | 1
– | CCC(=O)SCCNC(=O)CCNC(=O)[C@H](O)C(C)(C)COP(=O)(O)OP(=O)(O)OC[C@H]1O[C@@H](n2cnc3c(N)ncnc32)[C@H](O)[C@@H]1OP(=O)(O)O [propionyl-CoA] | 136 | – | – | 4
